Assay [1] concerns the target T1, Solute carrier family 22 member 1 (Homo sapiens, UniProt O15245).
T1 sequence (O15245 whole entry): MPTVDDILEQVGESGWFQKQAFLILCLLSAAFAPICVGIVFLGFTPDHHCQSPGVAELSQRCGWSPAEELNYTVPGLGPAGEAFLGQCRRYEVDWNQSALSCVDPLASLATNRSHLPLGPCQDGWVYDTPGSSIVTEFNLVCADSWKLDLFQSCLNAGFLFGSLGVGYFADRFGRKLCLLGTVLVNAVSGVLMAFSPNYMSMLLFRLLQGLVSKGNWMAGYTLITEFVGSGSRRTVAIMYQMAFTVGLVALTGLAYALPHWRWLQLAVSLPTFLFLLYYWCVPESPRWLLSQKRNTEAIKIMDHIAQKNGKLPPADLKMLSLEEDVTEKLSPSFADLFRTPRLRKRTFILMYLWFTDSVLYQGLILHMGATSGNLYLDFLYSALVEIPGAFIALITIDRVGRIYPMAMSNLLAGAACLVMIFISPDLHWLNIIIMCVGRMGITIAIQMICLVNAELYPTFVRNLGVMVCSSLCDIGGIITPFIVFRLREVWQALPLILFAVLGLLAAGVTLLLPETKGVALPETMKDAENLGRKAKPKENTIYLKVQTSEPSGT
The assay can be described thus: TP_TRANSPORTER: inhibition of MPP+ uptake (MPP+: 0.025 uM) in OCT1-expressing HEK293 cells.

For assay [2], the target named is T2, Solute carrier family 22 member 3 (Homo sapiens, UniProt O75751).
T2 sequence (O75751 whole entry): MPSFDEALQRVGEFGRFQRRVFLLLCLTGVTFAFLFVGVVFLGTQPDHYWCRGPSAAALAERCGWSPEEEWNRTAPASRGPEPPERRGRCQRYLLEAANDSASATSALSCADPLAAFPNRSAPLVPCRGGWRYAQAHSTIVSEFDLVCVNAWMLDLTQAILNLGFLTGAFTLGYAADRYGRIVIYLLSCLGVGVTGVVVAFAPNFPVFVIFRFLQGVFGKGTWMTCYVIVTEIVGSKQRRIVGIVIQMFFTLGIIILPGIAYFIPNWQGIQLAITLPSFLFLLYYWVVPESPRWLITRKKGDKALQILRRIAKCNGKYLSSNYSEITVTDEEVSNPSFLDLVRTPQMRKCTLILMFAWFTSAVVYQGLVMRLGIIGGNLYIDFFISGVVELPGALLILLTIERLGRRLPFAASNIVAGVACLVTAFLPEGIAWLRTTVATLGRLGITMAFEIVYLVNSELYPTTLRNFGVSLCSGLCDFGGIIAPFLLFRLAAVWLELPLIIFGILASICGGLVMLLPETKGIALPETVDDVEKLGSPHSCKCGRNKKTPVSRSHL
Nature of the assay: TP_TRANSPORTER: inhibition of MPP+ uptake (MPP+: 0.025 uM) in OCT3-expressing HEK293 cells.

Assay [3] deals with T3, Solute carrier family 22 member 2 (Homo sapiens, UniProt O15244).
T3 sequence (O15244 whole entry): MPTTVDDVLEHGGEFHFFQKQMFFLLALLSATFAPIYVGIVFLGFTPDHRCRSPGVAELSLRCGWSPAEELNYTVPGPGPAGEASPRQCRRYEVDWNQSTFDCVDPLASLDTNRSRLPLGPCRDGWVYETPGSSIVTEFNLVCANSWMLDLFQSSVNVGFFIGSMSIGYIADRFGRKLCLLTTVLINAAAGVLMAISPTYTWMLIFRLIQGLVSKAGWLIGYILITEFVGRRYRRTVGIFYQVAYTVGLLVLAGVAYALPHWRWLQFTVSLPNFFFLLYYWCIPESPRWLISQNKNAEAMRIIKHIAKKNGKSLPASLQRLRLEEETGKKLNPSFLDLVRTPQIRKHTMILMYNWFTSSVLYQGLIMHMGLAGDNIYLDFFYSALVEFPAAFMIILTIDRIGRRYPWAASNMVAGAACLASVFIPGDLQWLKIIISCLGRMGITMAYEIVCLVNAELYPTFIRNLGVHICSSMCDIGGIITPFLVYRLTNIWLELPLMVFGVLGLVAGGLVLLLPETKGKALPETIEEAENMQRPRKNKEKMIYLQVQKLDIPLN
The assay can be described thus: TP_TRANSPORTER: inhibition of MPP+ uptake (MPP+: 0.025 uM) in OCT2-expressing HEK293 cells.

What is called IC50 is the concentration that inhibits the measured activity by half. The low end stands for inhibition by little substance, the high end for a need for much substance.

In the case of `CCN1/C(=C/c2ccc3ccccc3[n+]2CC)C=Cc2ccccc21`, the half-inhibitory concentration (IC50) in assay [1] stood at 980 nM; in assay [2], 90 nM; in assay [3], 1130 nM.

On to `CC(=O)[C@H]1CC[C@H]2[C@@H]3CCC4=CC(=O)CC[C@]4(C)[C@H]3CC[C@]12C` [PROGESTERONE], for which the 50% inhibitory concentration (IC50) turned out to be 3050 nM in assay [1] and 4280 nM in assay [2].

For `C[C@]12C[C@H](O)[C@H]3[C@@H](CCC4=CC(=O)CC[C@@]43C)[C@@H]1CC[C@@H]2C(=O)CO` [CORTICOSTERONE], the IC50 in assay [1] turned out to be 21700 nM; in assay [2], 290 nM; in assay [3] it was 34200 nM.

Regarding `COc1cc2nc(N3CCN(C(=O)c4ccco4)CC3)nc(N)c2cc1OC` [PRAZOSIN], the IC50 in assay [1] was determined as 1840 nM; in assay [2], 12600 nM.

Take `COc1cc(C(O)CNC(C)C)ccc1O` (stereo not given) [METIPRENALINE]: the IC50 is over 100000 nM in assay [1], 4380 nM in assay [2] and over 100000 nM in assay [3].

As to `CN(CCCl)C1c2ccccc2-c2ccccc21`, the IC50 was over 300 nM in assay [1], 50 nM in assay [2] and 100 nM in assay [3].

As for `C[C@]12CC[C@@H]3c4ccc(O)cc4CC[C@H]3[C@@H]1CC[C@@H]2O` [ESTRADIOL], the values for the IC50 in assay [1] and in assay [2] were 5730 nM and 2880 nM, respectively.

Take `CC(COc1ccccc1)N(CCCl)Cc1ccccc1` (stereo not given) [PHENOXYBENZAMINE]: the half-inhibitory concentration (IC50) is 2720 nM in assay [1] and 6130 nM in assay [2].

Values taken from ChEMBL document CHEMBL2074233, “Expression and pharmacological profile of the human organic cation transporters hOCT1, hOCT2 and hOCT3” (Br J Pharmacol, 2002).
